Values of other authors as cited in publication PMC12329520 (Molecular Therapy. Nucleic Acids, 2025).

Test system: exon 23 of the Dmd gene
Settings: CP10 conjugated to 2OMePS ASO, mdx mouse

Substance: QLFPLFR [CP10]
- exon skipping in skeletal muscle tissues and heart compared with an unconjugated ASO of the same chemistry: significant improvement in exon skipping
